Measurements taken from publication PMC10285648, “iTAG an optimized IMiD-induced degron for targeted protein degradation in human and murine cells” (iScience, 2023).

Columns and labels:
[1] = target: T1, PDE6D (Mus musculus, UniProt O55057+Q8C7D2); assay: Western blot validation of PDE6D degradation; type: cell-based; details: AT3, 4434 and CT26, 10uM, 24h, western blotting
T1 construct: endogenous in cells; host or cells: AT3, 4434, CT26 (mouse); HEK293T run as human control
Procedure: (§1) Figure 6 FPFT2216 induces the degradation of PDE6D in murine cells (A) Proteomes of CT26 cells treated with 10uM of the indicated compounds for 24h and analyzed using quantitative proteomics. Data are plotted as Log2 fold change relative to DMSO versus Log10 of p value. (B) Proteome of CT26 CRBN KO cells treated with 10uM of FPFT2216 for 24h analyzed and plotted as in (A). (C) HEK293T, CT26, AT3 and 4434 cells treated with 10uM of FPFT2216 for 24h in presence of absence of MLN4924. Lysats were analyzed using western blotting. (D) Structural representation of PDE6D with the critical Glycine 28 highlighted in red. (E) CT26, AT3 and 4434 cells transiently expressing WT or G28N mutant Flag-PDE6D treated with 10uM of FPFT2216 for 16h. (F) Docking model for FPFT-2216 (in magenta) in the binding site of mouse CRBN (in orange). H-bond interactions are shown as cyan dashes. (G) Binding model for the ternary complex formed by mouse CRBN (in orange), mouse PDE6D (in cyan) and FPFT-2216 (in magenta), showing the Gly28 loop close to the molecular glue.
(§2) Cells were lysed with SDS lysis buffer (2% SDS, 10% Glycerol, 50mM Tris pH 6.8) and boiled at 95°C for 30min. Protein concentration was measured using Pierce BCA Protein Assay Kit (ThermoFischer) following manufacturer’s recommendations. […]

[2] = test system: CT26 cells; assay: Quantitative multiplexed proteomics of CT26 cells treated with thalidomide derivatives; type: cell-based, mouse; details: 24h
Procedure: After showing that iTAG was active in mouse cells, we explored whether more potential degrons were active in the murine context. […]2216[50] and profiled the cellular proteomes using quantitative multiplexed proteomics. […] Data are plotted as Log2 fold change relative to DMSO versus Log10 of p value. (B) Proteome of CT26 CRBN KO cells treated with 10uM of FPFT2216 for 24h analyzed and plotted as in (A). (C) HEK293T, CT26, AT3 and 4434 cells treated with 10uM of FPFT2216 for 24h in presence of absence of MLN4924. […] were analyzed using western blotting. (D) Structural representation of PDE6D with the critical […] highlighted in red. (E) CT26, AT3 and 4434 cells transiently expressing WT or […] mutant Flag-PDE6D treated with 10uM of FPFT2216 for 16h. (F) Docking model for FPFT-2216 (in magenta) in the binding site of mouse CRBN (in orange). H-bond interactions are shown as cyan dashes. (G) Binding model for the ternary complex formed by mouse CRBN (in orange), mouse PDE6D (in cyan) and FPFT-2216 (in magenta), showing the […] loop close to the molecular glue. Samples for quantitative proteomics were prepared using the […] workflow.[60] Briefly, the cell pellets were lysed in a buffer containing 150 μL 0.1 M triethylammonium bicarbonate (TEAB), 1% sodium deoxycholate (SDC), 10% isopropanol, 50mM NaCl, 5 mM tris-2-carboxyethyl phosphine (TCEP), 10 mM iodoacetamide (IAA), universal nuclease, and supplemented with protease and phosphatase inhibitors. Samples were bath sonicated for 5 min, incubated at RT for 45 min and protein concentration was measured with the Bradford Protein Assay (Biorad) according to manufacturer instructions. Aliquots containing 30 μg of total protein were used for protein digestion. The resultant peptides were labeled with a tandem mass tag (TMTpro) multiplex reagent vial (Thermo Scientific) according to the manufacturer instructions. All the TMT-labelled samples were combined in equal amounts to a single tube. The TMT-peptide mixture was acidified with 1% formic acid and the precipitated SDC was removed by centrifugation. The sample was then dried with a centrifugal vacuum concentrator. LC-MS analysis was performed on the Dionex Ultimate 3000 UHPLC system coupled with the Orbitrap Lumos mass spectrometer (Thermo Scientific). Samples were analyzed with the EASY-Spray C18 capillary column (75 μm × 50 cm, 2 μm) at 50°C. […] MS3 quantification was obtained with higher-energy collisional dissociation (HCD) fragmentation of the top 5 most abundant CID fragments isolated with synchronous precursor selection (SPS). […] The SEQUEST-HT search engine was used to analyze the acquired mass spectra in Proteome Discoverer 2.4 (Thermo Scientific) for protein identification and quantification. […]

[3] = test system: CK1α; assay: Western blot validation of CK1α degradation; type: cell-based, human, mouse; details: HEK293T versus AT3, 4434, CT26, 10uM, 24h, western blotting
Procedure: as §1, §2

[4] = target: T2, Flag-PDE6D G28N mutant (Mus musculus, UniProt O55057, G28N); assay: Degradation of WT or G28N mutant Flag-PDE6D in murine cells; type: cell-based; details: CT26, AT3 and 4434, 10uM, 16h
T2 construct: expressed in transfected cells; host or cells: CT26, AT3 and 4434 murine cells, transient
Procedure: as §1
After validating PDE6D degradation, we progressed to identify the critical degron site on the protein. We hypothesized that PDE6D binding to CRBN would require a Gly loop motif and used known structural features of IMiD degrons to map this site in PDE6D (see STAR Methods for details). […]

T1 sequence (O55057 whole entry): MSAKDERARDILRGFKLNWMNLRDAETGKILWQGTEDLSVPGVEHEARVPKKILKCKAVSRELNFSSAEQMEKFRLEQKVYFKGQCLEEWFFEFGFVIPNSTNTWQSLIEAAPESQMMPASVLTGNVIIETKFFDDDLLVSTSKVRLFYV
T1 sequence (Q8C7D2 whole entry): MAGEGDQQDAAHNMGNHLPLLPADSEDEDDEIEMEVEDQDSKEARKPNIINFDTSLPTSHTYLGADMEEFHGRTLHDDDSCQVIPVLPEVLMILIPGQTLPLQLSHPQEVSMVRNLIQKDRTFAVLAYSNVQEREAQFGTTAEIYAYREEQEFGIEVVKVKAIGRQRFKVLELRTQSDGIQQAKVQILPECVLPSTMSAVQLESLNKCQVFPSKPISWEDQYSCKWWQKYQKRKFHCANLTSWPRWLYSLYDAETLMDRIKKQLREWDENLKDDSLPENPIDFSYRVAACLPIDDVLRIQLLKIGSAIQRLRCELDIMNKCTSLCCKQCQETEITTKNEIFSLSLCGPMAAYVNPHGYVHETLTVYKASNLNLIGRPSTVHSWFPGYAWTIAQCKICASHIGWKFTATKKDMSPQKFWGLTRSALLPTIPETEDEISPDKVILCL
T1 sequence (Q3U1J4 2-1140 partner limits assumed): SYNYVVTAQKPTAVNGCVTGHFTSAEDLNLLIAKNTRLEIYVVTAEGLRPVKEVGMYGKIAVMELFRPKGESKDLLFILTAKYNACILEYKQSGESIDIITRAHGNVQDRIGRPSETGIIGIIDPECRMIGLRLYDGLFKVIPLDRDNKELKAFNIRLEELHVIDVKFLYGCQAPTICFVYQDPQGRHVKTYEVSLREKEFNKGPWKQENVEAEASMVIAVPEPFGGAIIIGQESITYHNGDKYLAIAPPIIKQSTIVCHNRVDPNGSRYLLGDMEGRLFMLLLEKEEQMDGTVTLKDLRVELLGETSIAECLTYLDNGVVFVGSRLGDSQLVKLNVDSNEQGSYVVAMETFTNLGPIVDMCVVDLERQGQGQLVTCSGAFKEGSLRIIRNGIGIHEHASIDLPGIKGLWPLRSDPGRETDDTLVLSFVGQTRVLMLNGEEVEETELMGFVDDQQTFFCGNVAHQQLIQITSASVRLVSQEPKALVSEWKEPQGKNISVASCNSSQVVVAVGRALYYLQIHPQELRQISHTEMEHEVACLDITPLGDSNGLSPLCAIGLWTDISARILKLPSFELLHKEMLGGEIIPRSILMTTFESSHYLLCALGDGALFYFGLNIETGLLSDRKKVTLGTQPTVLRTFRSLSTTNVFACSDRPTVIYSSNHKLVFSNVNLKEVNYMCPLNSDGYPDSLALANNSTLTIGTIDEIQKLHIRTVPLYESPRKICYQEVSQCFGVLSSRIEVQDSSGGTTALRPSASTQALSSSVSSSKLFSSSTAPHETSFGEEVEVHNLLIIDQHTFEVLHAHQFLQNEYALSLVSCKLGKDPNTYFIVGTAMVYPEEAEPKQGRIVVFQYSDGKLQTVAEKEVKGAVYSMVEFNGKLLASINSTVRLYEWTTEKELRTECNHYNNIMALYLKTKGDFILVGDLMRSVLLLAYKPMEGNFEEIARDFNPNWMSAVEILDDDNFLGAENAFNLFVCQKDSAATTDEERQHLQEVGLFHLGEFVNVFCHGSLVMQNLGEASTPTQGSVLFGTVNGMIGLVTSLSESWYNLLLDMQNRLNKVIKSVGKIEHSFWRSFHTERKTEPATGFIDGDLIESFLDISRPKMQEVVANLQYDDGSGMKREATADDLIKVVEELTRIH
T2 sequence (Q8C7D2 whole entry partner): as the sequence (Q8C7D2 whole entry) above
T2 sequence (Q3U1J4 2-1140 partner limits assumed): as the sequence (Q3U1J4 2-1140 partner limits assumed) above
T2 sequence (O55057 whole entry G28N): as the sequence (O55057 whole entry) above, with G28N counted along it

For `COc1cscc1-c1cn(C2CCC(=O)NC2=O)nn1` (centres unmarked) [FPFT2216], the “degradation of PDE6D” value [1] was “induced the degradation of PDE6D”, the “effect on cellular proteome” value ([2]; CT26, 10uM) was “strong downregulation of PDE6D, Rab28 and to a much lesser extent CK1α” and the “CRBN dependence of proteome effects” value ([2]; CT26 CRBN KO cells, 10uM) was “CRBN dependent”. The “degradation of CK1α” value [3] was “only degraded in human cells” and the “degradation of G28N mutant PDE6D” value [4] was “not degraded”.
